Test system: hydrolases SEQ ID NO: 1-41
Experiment: Analysis of substrate spectrum of hydrolases (TLC, HPLC-MS, GC-MS); further: key: '+'- active; ' –' inactive towards derivative
Assay type: biochemical
Method: A hydrolytic activity of enzymes was analysed by thin-layer chromatography (TLC), high-performance liquid chromatography and a mass spectrometry (HPLC-MS) and Gas chromatography and a mass spectrometry (GC-MS) methods. Nucleosides, as substrates and hydrolysis reaction products, were tested by thin-layer chromatography (TLC) method and by a high-performance liquid chromatography - mass spectroscopy (HPLC-MS) method. Other reaction products were detected by Gas chromatography-Mass spectrometry (GC-MS) system. […] The conditions of the reactions are given below.
Hydrolysis products test by thin-layer chromatography (TLC) method. A hydrolytic activity was assayed in reaction mixture containing 45 mM potassium phosphate buffer, pH 7.5, 1 µl enzyme (0.1-4.6 µg/reaction) and 4 mM substrate. The total reaction mix volume was 20 µl. Reaction mixture were incubated at 30 °C temperature up to 3 h and at RT overnight. Thin-layer chromatography (TLC) was conducted on the Merck silica gel 60 F254 plates, using the chloroform and methanol (5:1) mixture of solvents.
High-performance liquid chromatography/mass spectrometry (HPLC-MS) analysis of hydrolysis reaction products. […] Mass scans were measured from m/z 10 up to m/z 500, at 350 °C interface temperature, 250 °C DL temperature, ±4,500 V interface voltage, neutral DL/Qarray, using N 2 as nebulizing and drying gas. Mass spectrometry data was acquired in both the positive and negative ionization mode. The data was analysed using the LabSolutions LCMS software. For HPLC-MS analysis, the reaction mixture consisted of 45 mM potassium phosphate buffer (pH 7.5), 2 mM substrate (from 50-100 mM stock in DMSO), and protein (-0.5-1 mg/ ml). Reaction mixture was incubated at 30 °C temperature up to 3 h and at RT overnight.
Gas chromatography-Mass spectrometry (GC-MS) analysis of hydrolysis reaction products. GC-MS analyses were performed with a Shimadzu GCMS-QP2010 Ultra Plus (Kyoto, Japan). […] Temperature program -50°C (1 min), 50°C →250 °C (25 °C/min), total run time - 15 min. The temperatures of injector, interface and ion source were 250°C.
For GC-MS analysis, the reaction mixture consisted of 45 mM potassium phosphate buffer (pH 7.5), 2.4 mM substrate (from 50-100 mM stock in DMSO), and protein (-0.5-1 mg/ ml). The total reaction mix volume was 1000 µl. The hydrolysis reaction products were extracted with ethyl acetate (3x 400 µl).

Measured: Hydrolysis of S^4-alkyl uridine derivatives

O=c1nc(SCc2ccccc2)ccn1[C@@H]1O[C@H](CO)[C@@H](O)[C@H]1O [4-S-benzyl-U]
+: enzyme SEQ ID No:1 | enzyme SEQ ID No:2 | enzyme SEQ ID No:3 | enzyme SEQ ID No:4 | enzyme SEQ ID No:9 | enzyme SEQ ID No:10 | enzyme SEQ ID No:13 | enzyme SEQ ID No:14 | enzyme SEQ ID No:21 | enzyme SEQ ID No:25 | enzyme SEQ ID No:28 | enzyme SEQ ID No:30 | enzyme SEQ ID No:34 | enzyme SEQ ID No:35 | enzyme SEQ ID No:38 | enzyme SEQ ID No:39 | enzyme SEQ ID No:41

CCCSc1ccn([C@@H]2O[C@H](CO)[C@@H](O)[C@H]2O)c(=O)n1 [4-S-n-propyl-U]
+: enzyme SEQ ID No:1 | enzyme SEQ ID No:3 | enzyme SEQ ID No:4

CCSc1ccn([C@@H]2O[C@H](CO)[C@@H](O)[C@H]2O)c(=O)n1 [4-S-ethyl-U]
+: enzyme SEQ ID No:1 | enzyme SEQ ID No:2 | enzyme SEQ ID No:3 | enzyme SEQ ID No:4 | enzyme SEQ ID No:6 | enzyme SEQ ID No:9 | enzyme SEQ ID No:21 | enzyme SEQ ID No:25 | enzyme SEQ ID No:26 | enzyme SEQ ID No:27 | enzyme SEQ ID No:28 | enzyme SEQ ID No:29 | enzyme SEQ ID No:30 | enzyme SEQ ID No:31 | enzyme SEQ ID No:32 | enzyme SEQ ID No:33 | enzyme SEQ ID No:34 | enzyme SEQ ID No:35 | enzyme SEQ ID No:36 | enzyme SEQ ID No:37 | enzyme SEQ ID No:38 | enzyme SEQ ID No:39 | enzyme SEQ ID No:40 | enzyme SEQ ID No:41

O=c1nc(Sc2ccccc2)c(F)cn1[C@@H]1O[C@H](CO)[C@@H](O)[C@H]1O [5F-4-S-phenyl-U]
+: enzyme SEQ ID No:1 | enzyme SEQ ID No:4 | enzyme SEQ ID No:35 | enzyme SEQ ID No:38

CC(C)Sc1ccn([C@@H]2O[C@H](CO)[C@@H](O)[C@H]2O)c(=O)n1 [4-S-iso-propyl-U]
+: enzyme SEQ ID No:1 | enzyme SEQ ID No:3 | enzyme SEQ ID No:4
